Measurements published in patent US20220160686A1, “MACROCYCLIC AZOLOPYRIDINE DERIVATIVES AS EED AND PRC2 MODULATORS” (Fulcrum Therapeutics, Inc., priority 2019, published 2022).
pIC50, pKd: −log10 of the molar value. Like-named read-outs stand apart in the source and are kept apart here.

Legend:
[1] = biological target: T1, biotinylated AVI-tagged EED (76-441) (Homo sapiens, UniProt O75530); assay: EED binding SPR assay; details: 1:1 binding model; read-out: KD, equilibrium dissociation constant as measured by surface plasmon resonance (SPR)
T1 construct: GST (N, cleaved yes); made in house; host or cells: E. coli BL21(DE3), co-expressed with pGro7
Protocol: Biotinylated AVI-tagged EED was produced using standard molecular biology techniques. A pGEX plasmid with a GST-preScission-cleavage-site-AVI-EED(76-441) sequence was placed into E. coli BL21(DE3) cells and co-expressed with pGro7. The E. coli were grown in shaker flasks in LB with ampicillin at 37° C. at 110 rpm to an OD600=0.7. At this time the temperature was lowered to 15° C. and IPTG was added to 0.3 mM. The cells were allowed to express overnight. Cells were then harvested.
For purification, the E. coli cell pellet was lysed into a buffer of 50 mM Tris pH 8.0, 500 mM NaCl, 5% glycerol and 5 mM DTT. The lysate was loaded onto a GSTrap FF column from GE Healthcare. After washing, the bound protein was eluted with 50 mM Tris pH 8.0, 500 mM NaCl, 5% glycerol, 5 mM DTT and 15 mM GSH. The collected fractions were combined and incubated with PreScission enzyme overnight at 4° C. The cleaved protein was then passed through a GSTrap FF column in a buffer of 50 mM Tris pH 8.0, 500 mM NaCl, 5% glycerol and 5 mM DTT. The cleaved protein was confirmed through mass spectrometry. The AVI-EED(76-441) was then buffer exchanged into 50 mM Bicine pH 8.3, 10 mM ATP, 10 mM magnesium acetate and 50 μM D-Biotin. 3 mg of BirA enzyme was added to the system and incubated at 4° C. for 2 hours to biotinylate the AVI-EED(76-441). The biotinylated-AVI-EED(76-441) was then buffer exchanged into 20 mM Tris pH 8.0 and 400 mM NaCl and passed through a size exclusion column of Superdex 200 16/60 Increase. The purified monomeric biotinylated-AVI-EED(76-441) was confirmed through SDS-PAGE, LC-MS and analytical size exclusion chromatography.
All surface plasmon resonance (SPR) assays were performed using a GE Biacore S200 utilizing GE Biotin CAPture chips. Capturing of CAP reagents was performed with a flow rate of 2 μL/min for 90 seconds. For protein capturing, a solution of 50 μg/mL of biotinylated AVI-tagged EED (76-441) in 10 mM HEPES pH 7.4, 150 mM NaCl, 0.05% Tween 20 and 2% DMSO (Running Buffer) was flowed over the chip with a flow rate of 5 μL/min for a contact time of 30 seconds. Final readings were 2200-2400 RU. For compounds, 7 concentrations were made with 3-dilutions using the Running Buffer for a total of 300 μL of each concentration in a 96-well microplate. During the binding experiments, a flow rate of […] was used for an association time of 90 seconds followed by a disassociation time of 180 seconds. The compartment temperature was set at 10° C. with the chip at 25° C. During regeneration the flow rate was set to 30 μL/min for 30 seconds. All fittings were done using a 1:1 binding model.

[2] = system: human P-glycoprotein HEK cells (HEK-P-gp); assay: H3K27me3 immunocytochemistry assay in P-gp expressing HEK293T cells, with or without elacridar; assay type: cell-based; details: Homo sapiens, 4 days compound treatment
Protocol: A plasmid encoding the human ABCB1 gene under the control of a CMV promoter was purchased from Origene (Cat #RC216080). The HEK293T cells were purchased from ATCC (Cat #CRL-3216) and were cultured for expansion in the recommended conditions. The HEK293T cells were transfected with 2 ug of the pCMV-ABCB1 plasmid using Lipofectamine 3000 following recommendations from the manufacturer (ThermoFisher Scientific, Cat #L3000008). After 24 h, cells were dissociated, and 5000 cells were seeded on a 10 cm tissue culture dish. On the next day, fresh media containing 5 nM Vinblastine (Sigma, Cat #V1377) was added, and media containing compound was replenished every 72 h. After surviving cells reached confluency, cells were passaged, and lines were maintained in the presence of 2.5 nM Vinblastine until further characterization.
P-gp expressing HEK293T, HUDEP2, and Human Mobilized Peripheral Blood Primary CD34+ cells were cultured for use in an H3K27me3 immunocytochemistry assay. HUDEP2 and Human Mobilized Peripheral Blood Primary CD34+ cells were cultured for use in an HbF immunocytochemistry assay. P-gp expressing HEK293T cells were maintained and passaged every 3-4 days by plating 300,000 viable cells in a T-25 culture flask containing 6 mLs of 293 Passaging Media comprised of DMEM (ThermoFisher #10566016), 10% fetal bovine serum (ThermoFisher #A3160502), 1% penicillin-streptomycin (ThermoFisher #15140122), and 2.5 nM Vinblastine (Sigma #V1377). To evaluate the inhibitory effect of the compounds of the present disclosure and their brain penetrant properties via P-gp mediated efflux, the H3K27me3 immunocytochemistry assay was conducted in the presence or absence of 250 nM of the P-gp inhibitor, elacridar. Poor brain penetrant compounds were expected to show higher potencies in the presence of Elacridar. However, brain penetrant compounds would show similar potencies irrespective of whether Elacridar is present or not. In these experiments plates without elacridar were seeded with P-gp expressing HEK293T cells at 1000 viable cells per well in a poly-d-lysine coated 384-well plate (Corning Cat #356697) in 45 μL of 293 Assay Media comprised of DMEM (ThermoFisher #10566016), 10% fetal bovine serum (ThermoFisher #A3160502), 1% penicillin-streptomycin (ThermoFisher #15140122). A replicate set of plates were seeded under the same conditions with 45 μL of 293 Assay Media supplemented with 250 nM of Elacridar to inhibit P-gp activity. Compounds were serially diluted at 10× concentration in 293 Media, and 5 μL transferred to their respective wells on both sets of plates for a total volume of 50 μL per well. The compound treated HEK293T cells were allowed to incubate for 4 days at 37° C., 85% relative humidity, and 5% CO2 before proceeding to ICC Fix and Stain protocol.
The Fix and Stain Protocol was the same for HEK293T, HUDEP2, and Primary CD34+ cell assays except the specific primary and secondary antibodies used for detection. Following 4 days of compound treatment, the respective plates were washed once with 25 μL of PBS (ThermoFisher #10010023) and fixed with 25 μL of 4% paraformaldehyde (ThermoFisher #28908) for 10 minutes at room temperature. The plates were then washed three times with 25 μL of PBS. Subsequent to that, the cells were permeabilized and blocked for 1 hour at room temperature in 25 μL of Perm/Block buffer comprised of IX PBS, 1% bovine serum albumin (ThermoFisher #A3294), 10% fetal bovine serum (ThermoFisher #A3160502), 0.3M glycine (Sigma #G7126), and 0.1% tween-20 (Sigma #P7949). This was followed by additional washing (three times) of the plates with 25 μL of 0.1% tween in PBS.
For the H3K27me3 assay, the cells were incubated overnight at 4° C. with 25 μL of H3K27me3 Primary Antibody (Cell Signaling #9733) diluted 1:200 in 0.1% tween-20 in PBS. […]

[3] = HEK293, 96 h, without elacridar, read-out: IC50, inhibitory activity on human P-glycoprotein HEK cells (HEK-P-gp)
[4] = HEK293, with 250 nM elacridar, read-out: IC50, inhibitory activity on human P-glycoprotein HEK cells (HEK-P-gp) pretreated with elacridar

T1 sequence (O75530 76-441 limits assumed): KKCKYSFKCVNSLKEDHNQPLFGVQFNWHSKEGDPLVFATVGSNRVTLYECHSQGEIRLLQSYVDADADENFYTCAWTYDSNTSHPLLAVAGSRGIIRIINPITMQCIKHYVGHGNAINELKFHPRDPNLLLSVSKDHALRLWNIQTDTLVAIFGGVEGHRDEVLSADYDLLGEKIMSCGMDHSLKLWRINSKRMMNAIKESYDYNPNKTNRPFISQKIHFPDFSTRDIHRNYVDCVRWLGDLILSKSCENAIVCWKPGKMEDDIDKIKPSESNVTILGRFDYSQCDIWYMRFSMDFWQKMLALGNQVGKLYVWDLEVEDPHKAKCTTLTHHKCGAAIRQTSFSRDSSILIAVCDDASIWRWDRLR

Row | SMILES | pKd [1] | pIC50 [2, 3] | pIC50 [2, 4]
1 | Cc1ncc(-c2cc3c(n4cnnc24)NCc2c(F)ccc4c2[C@@H](CO4)CO3)cc1N [Compound 179, (S)-5-(12-fluoro-7a,8,13,14-tetrahydro-7H-[1,2,4]triazolo[4′,3′:1,6]pyrido[3,2-b]benzofuro[4,3-fg][1,4]oxazonin-4-yl)-2-methylpyridin-3-amine] | > 8.60 | < 6.30 | 6.30 to 7.00
2 | Cc1nc(O)ccc1-c1cc2c(n3cnnc13)NCc1c(F)ccc3c1[C@@H](CO3)CO2 [Compound 187, (S)-5-(12-fluoro-7a,8,13,14-tetrahydro-7H-[1,2,4]triazolo[4′,3′:1,6]pyrido[3,2-b]benzofuro[4,3-fg][1,4]oxazonin-4-yl)-6-methylpyridin-2-ol] | > 8.60 | < 6.30 | < 6.30
3 | Fc1ccc2c3c1CNc1c(cc(-c4cnco4)c4nncn14)OC[C@@H]3CO2 [Compound 188, (S)-12-fluoro-4-(oxazol-5-yl)-7a,8,13,14-tetrahydro-7H-[1,2,4]triazolo[4′,3′:1,6]pyrido[3,2-b]benzofuro[4,3-fg][1,4]oxazonine] | > 8.60 | 6.30 to 7.00 | 6.30 to 7.00
4 | Cc1nc(C2CC2)ncc1-c1cc2c(n3cnnc13)NCc1c(F)ccc3c1[C@@H](CO3)CO2 [Compound 190, (S)-4-(2-cyclopropyl-4-methylpyrimidin-5-yl)-12-fluoro-7a,8,13,14-tetrahydro-7H-[1,2,4]triazolo[4′,3′:1,6]pyrido[3,2-b]benzofuro[4,3-fg][1,4]oxazonine] | > 8.60 | > 7.60 | > 7.60
5 | CNC(=O)CCc1ccc(-c2cc3c(n4cnnc24)NCc2c(F)ccc4c2C(CO4)CO3)c(C)n1 [Compound 191, (S)-3-(5-(12-fluoro-7a,8,13,14-tetrahydro-7H-[1,2,4]triazolo[4′,3′:1,6]pyrido[3,2-b]benzofuro[4,3-fg][1,4]oxazonin-4-yl)-6-methylpyridin-2-yl)-N-methylpropanamide] | > 8.60 | 7.00 to 7.30 | 6.30 to 7.00
6 | Cc1nccc(O)c1-c1cc2c(n3cnnc13)NCc1c(F)ccc3c1C(CO3)CO2 [Compound 192, (S)-3-(12-fluoro-7a,8,13,14-tetrahydro-7H-[1,2,4]triazolo[4′,3′:1,6]pyrido[3,2-b]benzofuro[4,3-fg][1,4]oxazonin-4-yl)-2-methylpyridin-4-ol] | 7.30 to 8.00 | < 6.30 | < 6.30
7 | CC(=O)N1CC=C(c2cc3c(n4cnnc24)NCc2c(F)ccc4c2[C@@H](CO4)CO3)CC1 [Compound 193, (S)-1-(4-(12-fluoro-7a,8,13,14-tetrahydro-7H-[1,2,4]triazolo[4′,3′:1,6]pyrido[3,2-b]benzofuro[4,3-fg][1,4]oxazonin-4-yl)-3,6-dihydropyridin-1(2H)-yl)ethan-1-one] | > 8.60 | 7.30 to 7.60 | 7.00 to 7.30
8 | Cc1ncc(O)cc1-c1cc2c(n3cnnc13)NCc1c(F)ccc3c1[C@@H](CO3)CO2 [Compound 194, (S)-5-(12-fluoro-7a,8,13,14-tetrahydro-7H-[1,2,4]triazolo[4′,3′:1,6]pyrido[3,2-b]benzofuro[4,3-fg][1,4]oxazonin-4-yl)-6-methylpyridin-3-ol] | > 8.60 | 7.00 to 7.30 | 7.00 to 7.30
9 | OCc1ncccc1-c1cc2c(n3cnnc13)NCc1c(F)ccc3c1C(CO3)CO2 [Compound 195, (S)-(3-(12-fluoro-7a,8,13,14-tetrahydro-7H-[1,2,4]triazolo[4′,3′:1,6]pyrido[3,2-b]benzofuro[4,3-fg][1,4]oxazonin-4-yl)pyridin-2-yl)methanol] | > 8.60 | > 7.60 | 7.00 to 7.30
10 | Cn1ncc(O)c1-c1cc2c(n3cnnc13)NCc1c(F)ccc3c1C(CO3)CO2 [Compound 196, (S)-5-(12-fluoro-7a,8,13,14-tetrahydro-7H-[1,2,4]triazolo[4′,3′:1,6]pyrido[3,2-b]benzofuro[4,3-fg][1,4]oxazonin-4-yl)-1-methyl-1H-pyrazol-4-ol] | > 8.60 | 7.30 to 7.60 | 7.00 to 7.30
